SMILES strings stand for the structures. ≈ marks a conversion by molar mass, not a printed value.

A short description of series [1]: Solubility comparison: saturated solutions in SGF, FaSSIF, FeSSIF and high purity water, concentration by HPLC. To be noted: for Solubility: HPLC; for solubility at 24 h: thermodynamic from solid. The method, then: Solubility comparison between crystalline Form M of lenvatinib mesylate of the present disclosure and anhydrate Form C in patent CN1890220A:
Crystalline Form M of lenvatinib mesylate prepared in example 1 and anhydrate Form C in CN1890220A were prepared into saturated solution in pH 1.8 SGF (Simulated gastric fluid), pH 5.0 FeSSIF (Fed state simulated intestinal fluid), FassIF (Fasted state simulated intestinal fluid) and high purity water. Concentrations in the saturated solutions were determined after 24 hours by HPLC.

Series [2] in a line: Stability assessment of crystalline form by XRPD before and after storage. In kind it is physicochemical. As to conditions: 7 days. The method, then:
FIG. 7a˜7c show XRPD patterns overlay of crystalline Form M of lenvatinib mesylate before and after stored in the following conditions for 7 days: a) sealed in aluminum plastic bags at 25° C./60% RH; b) sealed in aluminum plastic bags at 40° C./75% RH; c) sealed in aluminum plastic bags at 60° C./75% RH.
Stability assessment of Form M of lenvatinib mesylate of the present disclosure:
Three samples of crystalline Form M of lenvatinib mesylate were stored under the following conditions: a) sealed in aluminum plastic bags at 25° C./60% RH; b) sealed in aluminum plastic bags at 40° C./75% RH; c) sealed in aluminum plastic bags at 60° C./75% RH. The samples were tested by XRPD before and after stored for 7 days.

With `COc1cc2nccc(Oc3ccc(NC(=O)NC4CC4)c(Cl)c3)c2cc1C(N)=O.CS(=O)(=O)O` [Form C, reference compound], the Solubility is listed as 0.0015 mg/mL in series [1] (FaSSIF (fasted state simulated intestinal fluid), saturated solution, 24 h); 0.0003 mg/mL in series [1] (FeSSIF (fed state simulated intestinal fluid) pH 5.0, saturated solution, 24 h); 1.0 mg/mL in series [1] (High purity water, saturated solution, 24 h); 0.64 mg/mL in series [1] (SGF (simulated gastric fluid) pH 1.8, saturated solution, 24 h).
Regarding `COc1cc2nccc(Oc3ccc(NC(=O)NC4CC4)c(Cl)c3)c2cc1C(N)=O` [Form M, 4-{3-Chloro-4-[(cyclopropylcarbamoyl)amino]phenoxy}-7-methoxy-6-quinolinecarboxamide], the “Solubility in comparison with Form C in patent CN1890220A” value in series [1] (SGF, FaSSIF, FeSSIF, high purity water, 24 h) is “higher solubility”. Moreover, the solubility at 24 h in series [1] (fasted state simulated intestinal fluid (FaSSIF), fassif) was 24 µg/mL (≈ 56.2 µM); in series [1] (fed state simulated intestinal fluid (FeSSIF), pH 5, fessif), 0.4 µg/mL (≈ 0.937 µM); in series [1] (high purity water, water) it was 1600 µg/mL (≈ 3750 µM); in series [1] (simulated gastric fluid (SGF), pH 1.8, simulated gastric fluid), 690 µg/mL (≈ 1620 µM). Moreover, the “Crystalline form stability (XRPD pattern before and after storage)” value in series [2] (sealed in aluminum plastic bags at 25° C./60% RH), in series [2] (sealed in aluminum plastic bags at 40° C./75% RH) and in series [2] (sealed in aluminum plastic bags at 60° C./75% RH) was “remained unchanged” in each case.

These data come from patent US10246418B2, “Crystal form of lenvatinib methanesulfonate salt and preparation method thereof” (CRYSTAL PHARMATECH CO., LTD., priority 2015, dated 2019).
